The values below come from patent US20220281846A1, “COMPOUNDS AND COMPOSITIONS FOR THE TREATMENT OF RESPIRATORY DISEASES” (THE UNIVERSITY OF MELBOURNE, priority 2018, published 2022).

Molecules are shown by their SMILES.

One data set has as its target T1, ERBB4/HER4 (Homo sapiens, UniProt Q15303).
T1 construct: purchased Reaction Biology Corp
Nature of the data set: Kinase inhibition assay (HotSpot), ERBB4/HER4. Type of data set: biochemical. Particulars: 10 μM ATP, 10-dose IC50 mode; read-out: Compound IC50 (M) ERBB4/HER4.

Data set [1] deals with interleukin-1α (IL1α)-mediated cytokine production by the lung adenocarcinoma cell line A549. Nature of the data set: Cellular assay (A549) against IL1α-mediated cytokine production. The data set is classed as cell-based, human. Particulars: serum starved A549 cells, compound 30 min prior to IL-1α (1 ng/ml) for 24 h, ELISA. Here is the method:
Cellular Assay (A549 Human Lung Adenocarcinoma Cells) Assessing Effect of ZH3-138, ZH3-126 and PF670462 Against IL1α-Mediated Cytokine Production
The anti-inflammatory potential of selected compounds was examined by establishing the effects on interleukin-1α (IL1α)-mediated cytokine production by the lung adenocarcinoma cell line A549. Serum starved A549 cells were treated with various concentrations of the relevant CK1δ inhibitor (PF670462, ZH3-126 and ZH3-138) 30 min prior to IL-1α (1 ng/ml) for 24 h. Supernatant was collected and concentration of IL-6, IL-8 and GM-CSF was detected by ELISA. Data are presented as mean±SEM across three replicates in FIG. 7 (A: IL-6; B: IL-8 and C: GM-CSF).
On the technique in general: An ELISA detects its analyte on a solid surface through an enzyme-linked reagent.

Another data set concerns the target T2, MINK/MINK1 (Homo sapiens, UniProt Q8N4C8).
T2 construct: purchased Reaction Biology Corp
Nature of the data set: Kinase inhibition assay (HotSpot), MINK/MINK1. Type of data set: biochemical. Particulars: 10 μM ATP, 10-dose IC50 mode; read-out: Compound IC50 (M) MINK/MINK1.

Data set [2] is classed as in vitro ADME, mouse. Here is the method:
Incubation: The metabolic stability assay was performed by incubating each test compound in human liver microsomes at 37° C. and a protein concentration of 0.4 mg/mL. The metabolic reaction was initiated by the addition of an NADPH-regenerating system and quenched at various time points over a 60 minute incubation period by the addition of acetonitrile containing diazepam as internal standard. Control samples (containing no NADPH) were included (and quenched at 2, 30 and 60 minutes) to monitor for potential degradation in the absence of cofactor. The human liver microsomes used in this experiment were supplied by XenoTech, lot #1410230. Microsomal incubations were performed at a substrate concentration of 1 μM. Data analysis: Species scaling factors from Ring et al. (2011) JPharmSci, 100:4090-4110 were used to convert the in vitro CLint (μL/min/mg) to an in vivo CLint(mL/min/kg). Hepatic blood clearance and the corresponding hepatic extraction ratio (EH) were calculated using the well stirred model of hepatic extraction in each species, according to the “in vitro T1/2” approach described in Obach (1999) DrugMetab. Dispos. 27:1350-1359. The EH was then used to classify compounds as low(<0.3), intermediate (0.3-0.7), high (0.7-0.95) or very high (>0.95) extraction compounds. Predicted in vivo clearance values have not been corrected for microsomal or plasma protein binding. Species scaling calculations are based on two assumptions: 1) NADPH-dependent oxidative metabolism predominates over other metabolic routes (i.e. direct conjugative metabolism, reduction, hydrolysis, etc.), and; 2) rates of metabolism and enzyme activities in vitro are truly reflective of those that exist in vivo. […] [table]

T2 sequence (Q8N4C8 whole entry): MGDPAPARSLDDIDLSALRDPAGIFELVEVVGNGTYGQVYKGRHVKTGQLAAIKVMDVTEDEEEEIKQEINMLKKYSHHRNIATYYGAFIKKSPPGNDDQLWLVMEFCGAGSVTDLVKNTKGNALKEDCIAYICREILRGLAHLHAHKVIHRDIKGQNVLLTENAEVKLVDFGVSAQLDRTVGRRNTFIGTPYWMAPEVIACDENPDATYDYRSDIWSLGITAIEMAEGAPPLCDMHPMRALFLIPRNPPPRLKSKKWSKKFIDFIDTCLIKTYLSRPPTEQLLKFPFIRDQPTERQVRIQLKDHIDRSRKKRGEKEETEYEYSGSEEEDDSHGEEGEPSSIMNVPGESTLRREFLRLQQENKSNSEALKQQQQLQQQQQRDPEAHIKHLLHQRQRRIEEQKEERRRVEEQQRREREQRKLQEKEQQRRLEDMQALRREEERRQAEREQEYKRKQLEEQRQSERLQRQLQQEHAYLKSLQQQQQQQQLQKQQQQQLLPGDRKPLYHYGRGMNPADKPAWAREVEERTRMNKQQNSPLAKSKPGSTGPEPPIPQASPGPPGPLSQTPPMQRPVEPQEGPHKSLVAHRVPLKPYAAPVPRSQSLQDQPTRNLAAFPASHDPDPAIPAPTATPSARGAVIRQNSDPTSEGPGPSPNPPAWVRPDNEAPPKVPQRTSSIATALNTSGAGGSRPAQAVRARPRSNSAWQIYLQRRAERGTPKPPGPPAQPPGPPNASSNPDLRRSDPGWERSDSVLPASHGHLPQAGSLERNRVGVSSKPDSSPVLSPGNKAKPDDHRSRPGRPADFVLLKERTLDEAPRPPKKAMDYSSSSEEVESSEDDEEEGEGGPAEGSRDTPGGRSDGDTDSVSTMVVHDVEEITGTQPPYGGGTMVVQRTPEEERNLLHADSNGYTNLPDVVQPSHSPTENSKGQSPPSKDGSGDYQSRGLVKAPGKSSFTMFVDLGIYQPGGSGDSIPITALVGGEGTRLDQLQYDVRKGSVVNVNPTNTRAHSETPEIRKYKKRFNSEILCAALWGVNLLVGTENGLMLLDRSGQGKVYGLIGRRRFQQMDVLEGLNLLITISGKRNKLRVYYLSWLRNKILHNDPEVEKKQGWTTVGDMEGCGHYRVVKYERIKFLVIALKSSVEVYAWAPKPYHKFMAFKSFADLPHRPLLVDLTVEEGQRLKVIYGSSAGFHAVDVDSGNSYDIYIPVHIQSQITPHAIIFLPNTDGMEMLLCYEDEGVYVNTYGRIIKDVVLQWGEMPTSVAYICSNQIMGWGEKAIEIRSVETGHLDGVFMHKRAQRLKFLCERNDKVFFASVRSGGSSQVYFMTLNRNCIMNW
T1 sequence (Q15303 26-1308): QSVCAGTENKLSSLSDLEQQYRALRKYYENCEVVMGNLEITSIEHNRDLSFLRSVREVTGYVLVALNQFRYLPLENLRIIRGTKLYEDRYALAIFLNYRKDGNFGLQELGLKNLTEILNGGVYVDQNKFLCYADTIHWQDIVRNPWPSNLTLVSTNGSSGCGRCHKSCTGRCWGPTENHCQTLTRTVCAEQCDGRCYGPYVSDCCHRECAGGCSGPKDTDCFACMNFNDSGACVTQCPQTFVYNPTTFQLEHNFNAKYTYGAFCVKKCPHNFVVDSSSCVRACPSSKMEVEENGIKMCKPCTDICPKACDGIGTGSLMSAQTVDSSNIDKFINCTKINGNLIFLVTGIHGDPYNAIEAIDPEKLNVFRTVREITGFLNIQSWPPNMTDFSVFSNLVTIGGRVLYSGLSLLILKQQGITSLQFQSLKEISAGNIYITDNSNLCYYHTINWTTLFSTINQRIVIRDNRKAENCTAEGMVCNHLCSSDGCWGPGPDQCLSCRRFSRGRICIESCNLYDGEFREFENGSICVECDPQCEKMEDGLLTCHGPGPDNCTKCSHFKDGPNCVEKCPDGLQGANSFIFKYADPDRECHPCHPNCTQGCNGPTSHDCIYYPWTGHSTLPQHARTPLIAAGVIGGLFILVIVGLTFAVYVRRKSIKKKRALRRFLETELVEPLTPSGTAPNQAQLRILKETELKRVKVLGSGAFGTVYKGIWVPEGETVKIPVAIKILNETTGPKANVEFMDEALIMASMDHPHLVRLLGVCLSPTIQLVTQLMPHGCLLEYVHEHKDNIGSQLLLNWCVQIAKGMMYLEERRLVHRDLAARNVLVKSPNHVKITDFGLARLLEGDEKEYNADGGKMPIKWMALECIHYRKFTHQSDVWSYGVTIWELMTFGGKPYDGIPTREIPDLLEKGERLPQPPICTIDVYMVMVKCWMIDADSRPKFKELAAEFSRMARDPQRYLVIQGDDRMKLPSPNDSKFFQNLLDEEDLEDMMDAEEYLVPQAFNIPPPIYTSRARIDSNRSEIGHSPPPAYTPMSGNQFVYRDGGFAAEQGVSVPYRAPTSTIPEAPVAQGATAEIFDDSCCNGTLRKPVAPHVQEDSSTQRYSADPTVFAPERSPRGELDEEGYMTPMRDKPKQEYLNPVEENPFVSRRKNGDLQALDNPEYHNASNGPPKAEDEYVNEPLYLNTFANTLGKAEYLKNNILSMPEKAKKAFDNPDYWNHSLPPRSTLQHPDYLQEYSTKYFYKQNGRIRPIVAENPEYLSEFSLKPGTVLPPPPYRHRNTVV

Regarding `Nc1nccc(-c2c(-c3ccc(F)cc3)ncn2C2CCC(F)(F)CC2)n1` [ZH3-138, 4-(1-(4,4-Difluorocyclohexyl)-4-(4-fluorophenyl)-1H-imidazol-5-yl)pyrimidin-2-amine], the IC50 on ERBB4/HER4 is 9.98e-06 M; on MINK/MINK1, 1.15e-06 M. Further, in data set [1], the “supernatant concentrations of inflammatory biomarkers (IL-6, IL-8, GM-CSF)” value was “ability to reduce supernatant concentrations of other inflammatory biomarkers”.
For the molecule `Nc1nccc(-c2c(-c3ccc(F)cc3)ncn2C2CCCCC2)n1` [PF670462, reference compound], in data set [2], the “Predicted CLblood” value is 108 mL/min/kg; the “Predicted CLint, in vivo” value is 1105 mL/min/kg; the “Predicted EH (hepatic extraction ratio)” value is recorded as 0.90. In data set [2] (mouse, microsomes), the “CLint, in vitro” value is recorded as 428 μL/min/mg protein and the T1/2 is recorded as 4 min.
